How the values were obtained:
[1] = target: T1, USP7, Active human recombinant protein (Homo sapiens, UniProt Q93009); assay: USP7 assay (Ubiquitin-Rhodamine 110 enzymatic assay); assay type: biochemical; conditions: read-out: IC50
T1 construct: purchased CP Lot; 20200225001
Method in brief: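 Human recombinant USP7 (0.05 nM final) preincubated with compound, 10-point 3-fold series, 15 min at RT. Reaction started with 190 nM ubiquitin-rhodamine 110. Fluorescence (ex 485/em 535 nm) read kinetically 20 min. Slopes normalized to enzyme+substrate and substrate-only controls; IC50 from curve fit.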

[2] = mouse liver microsomal stability (Microsome Assay Protocol); assay type: in vitro ADME; conditions: pH 7.4; mouse liver microsomes, NADPH, 37° C.; read-out: MLM t1/2, min
Description: (§1) ND refers to not disclosed.
• 1. Buffer A: 1.0 L of 0.1 M monobasic Potassium Phosphate buffer containing 1.0 mM EDTA Buffer B: 1.0 L of 0.1 M Dibasic Potassium Phosphate buffer containing 1.0 mM EDTA • Buffer C: 0.1 M Potassium Phosphate buffer, 1.0 mM EDTA, pH 7.4 by titrating 700 mL of buffer B with buffer A while monitoring with a pH meter. • 2. Reference compound (Ketanserin) and test compounds spiking solution: • 500 μM spiking solution: added 10 μL of 10 mM DMSO stock solution into 190 μL ACN. • 1.5 μM spiking solution in microsomes (0.75 mg/mL): added 1.5 μL of 500 μM spiking solution and 18.75 μL of 20 mg/mL liver microsomes into 479.75 μL of Buffer C on ice. • 3. Prepared NADPH stock solution (6 mM) by dissolving NADPH into buffer C. Dispensed 30 μL of 1.5 μM spiking solution containing 0.75 mg/mL microsomes solution to the assay plates designated for different time points (0-, 5-, 15-, 30-, 45-min) on ice. For 0-min, added 135 μL of ACN containing IS to the wells of 0-min plate and then added 15 μL of NADPH stock solution (6 mM). Pre-incubated all other plates at 37° C. for 5 minutes. Added 15 μL of NADPH stock solution (6 mM) to the plates to start the reaction and timing. At 5-min, 15-min, 30-min, and 45-min, added 135 μL of ACN containing IS to the wells of corresponding plates, respectively, to stop the reaction. After quenching, shook the plates at the vibrator (IKA, MTS 2/4) for 10 min (600 rpm/min) and then centrifuged at 5594 g for 15 min (Thermo Multifuge×3R). Transferred 50 μL of the supernatant from each well into a 96-well sample plate containing 50 μL of ultra pure water (Millipore, ZMQS50F01) for LC/MS analysis.

[3] = plasma stability (Plasma Assay Protocol); assay type: in vitro ADME; conditions: 37° C., t1/2 extrapolated if >50% remaining at 60 min, ∞ if near 100% remaining
Description: as §1
• 1. Preheated 0.05 M sodium phosphate and 0.07 M NaCl buffer, pH 7.4. Dissolved 14.505 g/L Na2HPO4·12H2O, 1.483 g/L NaH2PO4·2H2O and 4.095 g/L NaCl in deionized water. The basic solution was then titrated with the phosphoric acid to pH 7.40. Stored in fridge up to 7 days. Checked pH on the day of experiment and adjust if outside specification of 7.4+/−0.1. • 2. Plasma preparation: • Thawed frozen plasma by placing at 37° C. quickly. Centrifuged plasma at 3,000 rpm for 8 minutes to remove clots, pipetted and pooled the supernatant as the plasma to be used in the experiment. Checked and recorded the pH of the plasma. Only used plasma within the range of pH 7.4 to pH 8. If higher than pH 8, discarded the plasma. By using a 5% CO2 incubator and PBS buffer, a pH of 7.4 was reached after the 4 hour equilibrium dialysis time. Put the plasma on ice until used. • 3. Tested compounds and reference compounds spiking solution: • 0.5 mM test compounds spiking solution A: Added 10 μL of 10 mM test compounds stock solution to 190 μL DMSO. • 0.02 mM spiking solution B: Added 40 μL of spiking solution A to 960 μL of […] Sodium phosphate buffer with 0.5% BSA.
Pre-warmed the plasma and spiking solution B at 37° C. for 5 min. Added 10 μL of pre-warmed spiking solution B into the wells designated for all the time points (5, 15, 30, 45, 60 min).
For 0-min, added 400 μL of acetonitrile (ACN) containing the internal standard (IS) to the wells of 0-min plate and then added 90 μL of plasma. Added 90 μL of pre-warmed plasma into the wells designated for the time points (0, 5, 15, 30, 45, 60 min), and started timing. At 5, 15, 30, 45, 60 min, added 400 μL of ACN containing IS to the wells of corresponding plates, respectively, to stop the reaction. After quenching, shook the plates at the vibrator (IKA, MTS 2/4) for 10 min (600 rpm/min) and then centrifuged at 5594 g for 15 min (Thermo Multifuge×3R). Transferred 50 μL of the supernatant from each well into a 96-well sample plate containing 50 μL of ultra pure water (Millipore ZMQS50F01) for LC/MS analysis.

T1 sequence (Q93009 whole entry): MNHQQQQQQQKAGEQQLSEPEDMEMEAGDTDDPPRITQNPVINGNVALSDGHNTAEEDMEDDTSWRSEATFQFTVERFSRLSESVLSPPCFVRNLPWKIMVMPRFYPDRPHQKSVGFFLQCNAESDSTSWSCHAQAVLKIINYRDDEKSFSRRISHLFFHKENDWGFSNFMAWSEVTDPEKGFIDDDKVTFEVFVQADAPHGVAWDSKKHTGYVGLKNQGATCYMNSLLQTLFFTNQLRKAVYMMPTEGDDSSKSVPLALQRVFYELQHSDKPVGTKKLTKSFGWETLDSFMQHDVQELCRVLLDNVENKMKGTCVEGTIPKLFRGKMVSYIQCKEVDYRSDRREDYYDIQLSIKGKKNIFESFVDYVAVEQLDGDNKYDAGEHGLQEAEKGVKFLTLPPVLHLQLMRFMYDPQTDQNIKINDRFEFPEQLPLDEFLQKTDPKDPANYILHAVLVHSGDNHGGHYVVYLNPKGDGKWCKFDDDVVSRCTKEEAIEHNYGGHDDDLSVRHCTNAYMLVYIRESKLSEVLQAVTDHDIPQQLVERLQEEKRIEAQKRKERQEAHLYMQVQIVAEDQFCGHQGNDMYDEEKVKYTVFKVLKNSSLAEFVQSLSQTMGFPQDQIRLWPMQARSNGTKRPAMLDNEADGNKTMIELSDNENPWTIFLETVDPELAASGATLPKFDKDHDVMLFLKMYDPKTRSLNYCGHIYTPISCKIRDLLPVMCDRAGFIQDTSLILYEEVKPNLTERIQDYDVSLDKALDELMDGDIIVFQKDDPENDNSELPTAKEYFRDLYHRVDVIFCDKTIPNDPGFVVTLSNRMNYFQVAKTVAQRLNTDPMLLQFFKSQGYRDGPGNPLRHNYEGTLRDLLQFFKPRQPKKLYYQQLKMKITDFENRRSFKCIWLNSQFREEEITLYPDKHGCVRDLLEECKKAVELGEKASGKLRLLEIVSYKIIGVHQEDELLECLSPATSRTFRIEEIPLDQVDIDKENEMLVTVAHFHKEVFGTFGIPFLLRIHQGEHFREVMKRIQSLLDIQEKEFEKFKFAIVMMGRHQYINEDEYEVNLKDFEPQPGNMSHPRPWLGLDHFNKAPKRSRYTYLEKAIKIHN

SMILES | IC50 [1] [nM] | half-life at 1 µM [2] [min] | half-life at 2 µM [3] [min]
CN(C)CCCOc1ccc2c(=O)n(CC3(O)CCN(C(=O)C(CCCNC(=O)c4ccc5c(Cl)cc(C6CC6)nc5c4)Cn4ccc(F)n4)CC3)cnc2c1 (stereo not shown) | < 20 | 17 | 188
CN(C)CCCOc1ccc2c(=O)n(CC3(O)CCN(C(=O)C(CCCNC(=O)c4ccc5c(Cl)c6c(nc5c4)CCCC6)Cn4ccc(F)n4)CC3)cnc2c1 (stereo not shown) | < 20 | 2.46 | 396
CN(C)CCCOc1ccc2c(=O)n(CC3(O)CCN(C(=O)[C@@H](CCCNC(=O)c4ccc5c(Cl)c6c(nc5c4)CCCC6)Cn4ccc(F)n4)CC3)cnc2c1 |  | 6.96 | 127
O=C(NCCCC(Cn1ccc(F)n1)C(=O)N1CCC(O)(Cn2cnc3ccccc3c2=O)CC1)c1ccc2c(Cl)c3c(nc2c1)CCCC3 (stereo not shown) | < 20 | 0.56 | 394
O=C(NCCC[C@@H](Cc1ccccc1)C(=O)N1CCC(O)(Cn2cnc(NCCN3CCCC3)cc2=O)CC1)c1ccc2c(Cl)ccnc2c1 [Compound 13, N-(4-benzyl-5-(4-hydroxy-4-((6-oxo-4-(2-(pyrrolidin-1-yl)ethylamino)pyrimidin-1(6H)-yl)methyl)piperidin-1-yl)-5-oxopentyl)-4-chloroquinoline-7-carboxamide] | 20 to 100 |  | 91.9
C=CC(=O)Nc1ccccc1-c1ccc(C(=O)N2CCC(O)(Cn3cnc4cc(NC(=O)CCN5CCN(C)CC5)ccc4c3=O)CC2)cc1 [Compound 24, N-(4′-(4-hydroxy-4-((7-(3-(4-methylpiperazin-1-yl)propanamido)-4-oxoquinazolin-3(4H)-yl)methyl)piperidine-1-carbonyl)biphenyl-2-yl)acrylamide] | > 1000 |  | 23
CN(C)CCC(=O)Nc1ccc2c(=O)n(CC3(O)CCN(C(=O)c4cn(CCNC(=O)c5ccc6c(Cl)ccnc6c5)nc4-c4ccccc4)CC3)cnc2c1 [Compound 55, 4-chloro-N-(2-(4-(4-((7-(3-(dimethylamino)propanamido)-4-oxoquinazolin-3(4H)-yl)methyl)-4-hydroxypiperidine-1-carbonyl)-3-phenyl-1H-pyrazol-1-yl)ethyl)quinoline-7-carboxamide] | > 1000 | 35.6 | 
CN(C)CCC(=O)Nc1ccc2c(=O)n(CC3(O)CCN(C(=O)c4cn(CCNC(=O)c5ccc6c(Cl)ccnc6c5)nc4C4CC4)CC3)cnc2c1 [Compound 56, 4-chloro-N-(2-(3-cyclopropyl-4-(4-((7-(3-(dimethylamino)propanamido)-4-oxoquinazolin-3(4H)-yl)methyl)-4-hydroxypiperidine-1-carbonyl)-1H-pyrazol-1-yl)ethyl)quinoline-7-carboxamide] | > 1000 | 95.9 | 
CN1CCN(CCC(=O)Nc2ccc3c(=O)n(CC4(O)CCN(C(=O)[C@@H](CCCNC(=O)c5ccc6c(Cl)ccnc6c5)Cc5ccccc5)CC4)cnc3c2)CC1 [Compound 59, (S)—N-(4-benzyl-5-(4-hydroxy-4-((7-(3-(4-methylpiperazin-1-yl)propanamido)-4-oxoquinazolin-3(4H)-yl)methyl)piperidin-1-yl)-5-oxopentyl)-4-chloroquinoline-7-carboxamide] | 20 to 100 |  | 78.9
O=C(CCN1CCOCC1)Nc1ccc2c(=O)n(CC3(O)CCN(C(=O)C(CCCNC(=O)c4ccc5c(Cl)ccnc5c4)Cc4ccccc4)CC3)cnc2c1 (stereo not shown) [Compound 60, N-(4-benzyl-5-(4-hydroxy-4-((7-(3-morpholinopropanamido)-4-oxoquinazolin-3(4H)-yl)methyl)piperidin-1-yl)-5-oxopentyl)-4-chloroquinoline-7-carboxamide] | 20 to 100 | 2.71 | 
O=C(CCn1ccnc1)Nc1ccc2c(=O)n(CC3(O)CCN(C(=O)C(CCCNC(=O)c4ccc5c(Cl)ccnc5c4)Cc4ccccc4)CC3)cnc2c1 (stereo not shown) [Compound 63, N-(5-(4-((7-(3-(1H-imidazol-1-yl)propanamido)-4-oxoquinazolin-3(4H)-yl)methyl)-4-hydroxypiperidin-1-yl)-4-benzyl-5-oxopentyl)-4-chloroquinoline-7-carboxamide] | 100 to 1000 | 4.16 | 
CN(C)CCC(=O)Nc1ccc2c(=O)n(CC3(O)CCN(C(=O)C(CCCNC(=O)c4ccc5c(Cl)cc(O)nc5c4)Cc4ccccc4)CC3)cnc2c1 (stereo not shown) [Compound 65] | 100 to 1000 | 12.8 | 
CNc1cc(Cl)c2ccc(C(=O)NCCCC(Cc3ccccc3)C(=O)N3CCC(O)(Cn4cnc5cc(NC(=O)CCN(C)C)ccc5c4=O)CC3)cc2n1 (stereo not shown) [Compound 69] | > 1000 | 4.5 | 
CNc1cc(Cl)nc2cc(C(=O)NCCCC(Cc3ccccc3)C(=O)N3CCC(O)(Cn4cnc5cc(NC(=O)CCN(C)C)ccc5c4=O)CC3)ccc12 (stereo not shown) [Compound 70] | 20 to 100 | 10.3 | 
CN(C)CCC(=O)Nc1ccc2c(=O)n(CC3(O)CCN(C(=O)C(CCCNC(=O)c4ccc5c(Cl)cc(C(N)=O)nc5c4)Cc4ccccc4)CC3)cnc2c1 (stereo not shown) [Compound 71] | 100 to 1000 | 54.6 | 
CN(C)CCC(=O)Nc1ccc2c(=O)n(CC3(O)CCN(C(=O)C(Cc4ccccc4)c4cccc(NC(=O)c5ccc6c(Cl)ccnc6c5)c4)CC3)cnc2c1 (stereo not shown) [Compound 72] | 100 to 1000 | 29.5 | 
Cc1cc(Cl)c2ccc(C(=O)N3CCN(CC(=O)N4CCC(O)(Cn5cnc6cc(Cl)ccc6c5=O)CC4)CC3)cc2n1 [Compound 80] | > 1000 | 5.41 | 
CN(C)CCC(=O)Nc1ccc2c(=O)n(CC3(O)CCN(C(=O)C(CCCNC(=O)c4ccc5c(Cl)ccnc5c4)Cc4ccc(F)cc4)CC3)cnc2c1 (stereo not shown) [Compound 81] | 20 to 100 | 11.8 | 
CN(C)CCC(=O)Nc1ccc2c(=O)n(CC3(O)CCN(C(=O)C(CCCNC(=O)c4ccc5c(Cl)c6c(nc5c4)COCC6)Cc4ccccc4)CC3)cnc2c1 (stereo not shown) [Compound 89] | 20 to 100 | 3.34 | 
Cc1nc2c(=O)n(CC3(O)CCN(C(=O)C4CCN(CCNC(=O)c5ccc6c(Cl)ccnc6c5)CC4c4ccccc4)CC3)cnc2n1-c1ccc(F)cc1 (stereo not shown) [Compound 110] | 100 to 1000 | 2.21 | 
CC(C)c1cnc2cc(C(=O)NCCC[C@H](Cc3ccccc3)C(=O)N3CCC(O)(Cn4cnc5cc(NC(=O)CCN(C)C)ccc5c4=O)CC3)ccc2c1Cl [Compound 119] | < 20 | 3.04 | 
CC(C)c1cc(Cl)c2ccc(C(=O)NCCC[C@H](Cc3ccccc3)C(=O)N3CCC(O)(Cn4cnc5cc(OCCCN(C)C)ccc5c4=O)CC3)cc2n1 [Compound 120] | < 20 | 5.89 | 
CN(C)CCCOc1ccc2c(=O)n(CC3(O)CCN(C(=O)[C@H](CCCNC(=O)c4ccc5c(Cl)c6c(nc5c4)CC(C)(C)C6)Cc4ccccc4)CC3)cnc2c1 [Compound 121] | < 20 | 6 | 

From US20240376076A1, “INHIBITORS TARGETING UBIQUITIN SPECIFIC PROTEASE 7 (USP7)” (Dana-Farber Cancer Institute, Inc., priority 2021, published 2024)
